Laboratory results as given in patent US4022895A, “Substituted phenylglycylcephalosporins” (SmithKline Corporation, priority 1975, dated 1977).
Values after ≈ are worked out from the molar mass of the structure shown. Where two headings read alike, the source gives them in different places.

How the values were obtained:
E.coli 12140 = assay: In vivo activity (ED50) against E.coli 12140
Klebs.pneumo. 4200 = assay: In vivo activity (ED50) against Klebs.pneumo. 4200; conditions: read-out: ED50
[1] = system: Sal. paratyphl ATCC 12176; assay: In vitro antibacterial activity (MIC); format: cell-based
Method: (§1) The compounds of this invention have antibacterial activity against Gram-positive and Gram-negative organisms. Minimum inhibitory concentrations (MIC's) ranged from 0.4 to >200 μg/ml in in vitro testing.

S.aureus HH 127 = assay: In vitro antibacterial activity (MIC); format: cell-based; conditions: Staphylococcus aureus, HH127; S.aureus HH 127, in vitro; read-out: MIC
Method: as §1

Kleb. pneumo. SK 4200 = assay: In vitro antibacterial activity (MIC); format: cell-based; conditions: Kleb. pneumo. SK 4200, in vitro; read-out: MIC
Method: as §1

Shig. paradys HH 112 = assay: In vitro antibacterial activity (MIC); format: cell-based; conditions: Shig. paradys HH 112, in vitro; read-out: MIC
Method: as §1

[2] = system: Entero. aerog. ATCC 13048; assay: In vitro antibacterial activity (MIC); format: cell-based; conditions: Entero. aerog. ATCC 13048, in vitro; read-out: MIC
Method: as §1

Proteus morgani 179 = assay: In vitro antibacterial activity (MIC); format: cell-based; conditions: Proteus morgani 179, in vitro; read-out: MIC
Method: as §1

E.coli SK 12140 = assay: In vitro antibacterial activity (MIC); format: cell-based; conditions: Escherichia coli, SK12140; E.coli SK 12140, in vitro; read-out: MIC
Method: as §1

S.aureus Villaluz = assay: In vitro antibacterial activity (MIC); format: cell-based; conditions: Staphylococcus aureus
Method: as §1

Kleb. pneumo. SK 1200 = assay: In vitro antibacterial activity (MIC); format: cell-based; conditions: Kleb. pneumo. SK 1200, in vitro; read-out: MIC
Method: as §1

S.aureus SK 23390 = assay: In vitro antibacterial activity (MIC); format: cell-based; conditions: Staphylococcus aureus, SK23390; S.aureus SK 23390, in vitro; read-out: MIC
Method: as §1

Strep. faecalis HH 34358 = assay: In vitro antibacterial activity (MIC); format: cell-based; conditions: Enterococcus faecalis, HH34358; Strep. faecalis HH 34358, in vitro
Method: as §1

E. coli HH 33779 = assay: In vitro antibacterial activity (MIC); format: cell-based; conditions: Escherichia coli, HH33779; E. coli HH 33779, in vitro; read-out: MIC
Method: as §1

`COC(=O)CNc1ccc([C@@H](N)C(=O)NC2C(=O)N3C(C(=O)O)=C(CSc4nnc(C)s4)CSC23)cc1` (stereo partly drawn) [Compound No. 96146, 7-[D-α-Amino-α-(4'-carbomethoxymethylaminophenyl)-acetamido]-3-(5-methyl-1,3,4-thiadiazol-2-ylthiomethyl)-3-cephem-4-carboxylic acid] showed an ED50 (E.coli 12140; Escherichia coli, 12140, po, E.coli 12140, p.o.) of 16 mg/kg, an ED50 (E.coli 12140; Escherichia coli, 12140, sc, E.coli 12140, s.c.) of 4.7 mg/kg and an ED50 (Klebs.pneumo. 4200; po, Klebs.pneumo. 4200, p.o.) of 17 mg/kg. For the same compound, the ED50 (Klebs.pneumo. 4200; sc, Klebs.pneumo. 4200, s.c.) was 2.9 mg/kg, the MIC [1] was 25 µg/mL (≈ 44.3 µM) and the MIC (S.aureus HH 127) was 6.3 µg/mL (≈ 11.2 µM). The MIC (Kleb. pneumo. SK 4200) was 50 µg/mL (≈ 88.5 µM), the MIC (Shig. paradys HH 112) was 25 µg/mL (≈ 44.3 µM) and the MIC [2] was 100 µg/mL (≈ 177 µM). The MIC (Proteus morgani 179) was over 200 µg/mL, the MIC (E.coli SK 12140) was 50 µg/mL (≈ 88.5 µM) and the MIC (S.aureus Villaluz) was 50 µg/mL (≈ 88.5 µM). For the same compound, the MIC (Kleb. pneumo. SK 1200) was 50 µg/mL (≈ 88.5 µM), the MIC (S.aureus SK 23390) was 6.3 µg/mL (≈ 11.2 µM) and the MIC (Strep. faecalis HH 34358) was 25 µg/mL (≈ 44.3 µM). For the same compound, the MIC (E. coli HH 33779) was 100 µg/mL (≈ 177 µM).
